According to US20030064954A1, “Cationic amphiphilic 1,4-dihydropyridine derivatives useful for delivery of nucleotide containing compounds” (priority 2000, published 2003):
Blank lines part the entries; values can stand above or below the molecule they belong to.

How the values were obtained:
[1] = test system: CV-1P (African monkey green kidney fibroblasts cells); experiment: In vitro transfection of plasmid DNA, β-galactosidase activity per well; format: cell-based; details: CVI-P
Method: Transfer of plasmid DNA by various compounds was investigated by using CV-1P (African monkey green kidney fibroblasts cells) and D407 (human retinal pigment epithelial) cells.
The cells were cultured in Dulbecco's modified Eagle's medium (DMEM, Gibco), supplemented with 10% fetal bovine serum (FBS), penicillin/streptomycin (100 units/ml and 100 μg/ml respectively) and 2 mM L-glutamine for D 407 cell line. Cell cultures were maintained at 37° C. in a 7% CO2/air incubator. The cells were collected, counted and seeded in growth medium (100 μl) into 96-well culture plate, 20 000 cells per well. One day later the medium was replaced with fresh medium without serum (150 μl)
In the case of confluent CV1-P cells the medium (with of without serum) was changed on fourth day of cell growth before the transfection.
The complexes at different derivative/DNA charge ratios for transfection procedure were prepared just before use in 50 mM MES—50 mM HEPES—75 mM NaCl buffer, pH 7.2 in separate 96 well plates. One hour after changing the serum-free medium with 10% serum the complexes were added to the cells at […]. Dose of DNA per well was 0.6 μg. After 5 h the complexes were removed, the cells were washed with PBS, and the normal growth medium was added. After 45 h of incubation at 37° C. the cells were lysed with 2% Triton X 100, twice deep frozen and the β-galactosidase activity in each well was determined spectrofotometrically with ELx800 automated microplate reader (Bio-Tex Instruments Inc., Winooski, Vt. USA) by monitoring the hydrolysis of o-nitrophenylgalactopyranoside (oNPG) at 405 nm. Purified β-galactosidase from E.coli was used to construct a standard curve and to calculate […] activity in the transfected cells. […] Transfection efficiencies are given as percentage in comparison to transfection efficiency of Lipofectin^R.

[2] = test system: D407 (human retinal pigment epithelial) cells; experiment: as above; format: cell-based; details: D 407
Method: The complexes at different derivative/DNA charge ratios for transfection procedure were prepared just before use in 50 mM MES—50 mM HEPES—75 mM NaCl buffer, pH 7.2 in separate 96 well plates. One hour after changing the serum-free medium with 10% serum the complexes were added to the cells at 370C. Dose of DNA per well was 0.6 μg. After 5 h the complexes were removed, the cells were washed with PBS, and the normal growth medium was added. After 45 h of incubation at 37° C. the cells were lysed with 2% Triton X 100, twice deep frozen and the β-galactosidase activity in each well was determined spectrofotometrically with ELx800 automated microplate reader (Bio-Tex Instruments Inc., Winooski, Vt. USA) by monitoring the hydrolysis of o-nitrophenylgalactopyranoside (oNPG) at 405 nm. Purified β-galactosidase from E.coli was used to construct a standard curve and to calculate 9-galactosidase activity in the transfected cells. […] Transfection efficiencies are given as percentage in comparison to transfection efficiency of Lipofectin^R.

D 407 cells = experiment: Cytotoxicity of amphiphile/DNA complexes, percentage of survived cells; format: cell-based, human; parameters: concentration or dose not given beside the values
plasmid DNA = experiment: DNA condensation/complexation, EtBr displacement assay; format: binding
Method: The ability of the cationic amphiphiles to condense DNA was assessed with an EtBr displacement assay. Briefly, in 96 well plates plasmid DNA (0.6 μg per well) was reacted with 0.002% EtBr in 20 mM HEPES—150 mM NaCl buffer, pH 7.4 and fluorescence intensity was measured at 530 nm (excitation) and 590 nm (emission). Intercalation of EtBr molecules between the base pairs of the DNA double helix results in increased fluorescence signal. Immediately thereafter, the cationic liposomes were added to form complexes at different +/−charge ratios and the quenching of fluorescence intensity of EtBr was monitored. Condensation of DNA upon complexation with liposomes results in the displacement of EtBr from DNA and in decreased fluorescence signal. Fluorescence was measured using FL 500 microplate fluorescence reader (Bio-Tek Instruments Inc., Winooski, Vt., USA).
The values are expressed as percentage of the maximum fluorescence signal when EtBr bound to DNA in the absence of an amphiphile. Each data point is from at least triplicate experiment ±S.D.

CVI-P cells = experiment: Cytotoxicity of amphiphile/DNA complexes, percentage of survived cells
[3] = amphiphile/DNA +/− charge ratio 0.5
[4] = amphiphile/DNA +/− charge ratio 1
[5] = amphiphile/DNA +/− charge ratio 2
[6] = amphiphile/DNA +/− charge ratio 4
[7] = amphiphile/DNA +/− charge ratio 8

Structure (SMILES): Br.CCCCCCCCCCCCCCCCOC(=O)C1=C(C)NC(C)=C(C(=O)OCCCCCCCCCCCCCCCC)C1c1ccc[n+](CC(=O)c2ccccc2)c1.[Br-]
melting point: 148 to 150 °C

Structure (SMILES): Br.CCOC(=O)C1=C(C)NC(C)=C(C(=O)OCC)C1c1ccc[n+](CCCCCCCCCCC(=O)O)c1.[Br-]
melting point: 134 to 136 °C

Structure (SMILES): Br.CCOC(=O)C1=C(C)NC(C)=C(C(=O)OCC)C1c1ccc[n+](CCCCCCCCCCCC(=O)O)c1.[Br-]
melting point: 152 to 156 °C

Structure (SMILES): Br.CCCCCCCCCCCCCCCC[n+]1cccc(C2C(C(=O)OC(C)CC)=C(C)NC(C)=C2C(=O)OC(C)CC)c1.[Br-] (stereo not drawn)
melting point: 159 to 165 °C

Structure (SMILES): Br.CCCCCCCCCCCCCCCC[n+]1ccc(C2C(C(=O)OCC)=C(C)NC(C)=C2C(=O)OCC)cc1.[Br-]
melting point: 95 to 98 °C

Structure (SMILES): Br.CCCCCCCCCCCCCCCC[n+]1ccccc1C1C(C(=O)OCC)=C(C)NC(C)=C1C(=O)OCC.[Br-]
melting point: 117 to 121 °C

Structure (SMILES): Br.CCOC(=O)C[n+]1cccc(C2C(C(=O)OC)=C(C)NC(C)=C2C(=O)OC)c1.[Br-]
melting point: 180 °C (dec.)

Structure (SMILES): Br.CCOCCOC(=O)C1=C(C)NC(C)=C(C(=O)OCCOCC)C1c1ccc[n+](CC(=O)OCC)c1.[Br-]
melting point: 163 to 165 °C

Structure (SMILES): Br.CCCOCCOC(=O)C1=C(C)NC(C)=C(C(=O)OCCOCCC)C1c1ccc[n+](CC(=O)OCC)c1.[Br-]
melting point: 144 to 146 °C

Structure (SMILES): Br.CCCCCCCCCCCCCCCCOC(=O)C1=C(C)NC(C)=C(C(=O)OCCCCCCCCCCCCCCCC)C1c1ccc[n+](CC(=O)OCC)c1.[Br-]
melting point: 99 to 102 °C

Structure (SMILES): Br.CCOC(=O)C[n+]1cccc(C2C(C(=O)OC3CC(C)CCC3C(C)C)=C(C)NC(C)=C2C(=O)OC2CC(C)CCC2C(C)C)c1.[Br-] (stereo not drawn)
melting point: 180 °C (dec.)

Structure (SMILES): Br.CCOC(=O)C[n+]1ccc(C2C(C(=O)OCC)=C(C)NC(C)=C2C(=O)OCC)cc1.[Br-]
melting point: 140 to 143 °C

Structure (SMILES): Br.CCOC(=O)C[n+]1ccccc1C1C(C(=O)OCC)=C(C)NC(C)=C1C(=O)OCC.[Br-]
melting point: 197 to 199 °C

Structure (SMILES): CCCCOC(=O)C1=C(C)NC(C)=C(C(=O)OCCCC)C1c1ccc[n+](C)c1.I.[I-] [Example 2a, 3′,5′-Bis(butoxycarbonyl)-1′,4′-dihydro-1,2′,6′-trimethyl-3,4′-bipyridinium iodide]
melting point: 161 to 164 °C

Structure (SMILES): CC1=C(C(=O)OC2CC3CCC2(C)C3(C)C)C(c2cc[n+](C)cc2)C(C(=O)OC2CC3CCC2(C)C3(C)C)=C(C)N1.I.[I-] (stereo not drawn) [Example 2u, 3′,5′-Bis(bornyloxycarbonyl)-1′,4′-dihydro-1,2′,6′-trimethyl-4,4′-bipyridinium iodide]
melting point: 270 °C (dec.)

Structure (SMILES): CCCCCCCCCCCCCCCCOC(=O)C1=C(C[n+]2ccccc2)NC(C[n+]2ccccc2)=C(C(=O)OCCCCCCCCCCCCCCCC)C1c1ccccc1.[Br-].[Br-] [XXV, 1,1′-[(3,5-Dihexadecyloxycarbonyl-4-phenyl-1,4-dihydropyridine-2,6-diyl)dimethylene]bispyridinium dibromide]
transfection efficiency [1, 3]: 0,23 β-galactosidase units per well | transfection efficiency [1, 4]: 0,24 β-galactosidase units per well | transfection efficiency [1, 5]: 17,5 β-galactosidase units per well | transfection efficiency [1, 6]: 15,15 β-galactosidase units per well | transfection efficiency [1, 7]: 9,04 β-galactosidase units per well | transfection efficiency [2, 3]: 0,57 β-galactosidase units per well | transfection efficiency [2, 4]: 0,31 β-galactosidase units per well | transfection efficiency [2, 5]: 066 β-galactosidase units per well | transfection efficiency [2, 6]: 2,05 β-galactosidase units per well | transfection efficiency [2, 7]: 2,47 β-galactosidase units per well | cytotoxicity as a percentage of survived cells (D 407 cells; [3]): 97,52% | cytotoxicity as a percentage of survived cells (D 407 cells; [4]): 97,73% | cytotoxicity as a percentage of survived cells (D 407 cells; [5]): 101,48% | cytotoxicity as a percentage of survived cells (D 407 cells; [6]): 89,12% | cytotoxicity as a percentage of survived cells (D 407 cells; [7]): 62,05% | complexation, percentage of the maximum fluorescence signal when EtBr bound to DNA in the absence of an amphiphile (plasmid DNA; [3]): 94,16% | complexation, percentage of the maximum fluorescence signal when EtBr bound to DNA in the absence of an amphiphile (plasmid DNA; [4]): 89,06% | complexation, percentage of the maximum fluorescence signal when EtBr bound to DNA in the absence of an amphiphile (plasmid DNA; [5]): 83,1% | complexation, percentage of the maximum fluorescence signal when EtBr bound to DNA in the absence of an amphiphile (plasmid DNA; [6]): 77,14% | complexation, percentage of the maximum fluorescence signal when EtBr bound to DNA in the absence of an amphiphile (plasmid DNA; [7]): 71,37% | cytotoxicity as a percentage of survived cells (CVI-P cells; [3]): 92,82% | cytotoxicity as a percentage of survived cells (CVI-P cells; [4]): 99,29% | cytotoxicity as a percentage of survived cells (CVI-P cells; [5]): 101,03% | cytotoxicity as a percentage of survived cells (CVI-P cells; [6]): 107,03% | cytotoxicity as a percentage of survived cells (CVI-P cells; [7]): 100,65%

Second part, the molecule after the results:

melting point: 135 to 138 °C
Structure (SMILES): Br.CCCOCCOC(=O)C1=C(C)NC(C)=C(C(=O)OCCOCCC)C1c1ccc[n+](CC(=O)c2ccccc2)c1.[Br-]

melting point: 224 to 227 °C
Structure (SMILES): Br.CCOC(=O)C1=C(C)NC(C)=C(C(=O)OCC)C1c1cc[n+](CC(=O)c2ccccc2)cc1.[Br-]

melting point: 211 to 216 °C
Structure (SMILES): Br.CCOC(=O)C1=C(C)NC(C)=C(C(=O)OCC)C1c1cc[n+](CC(=O)c2ccc3ccccc3c2)cc1.[Br-]

melting point: 212 to 213 °C (dec.)
Structure (SMILES): Br.CCOC(=O)C1=C(C)NC(C)=C(C(=O)OCC)C1c1ccc[n+](Cc2ccc([N+](=O)[O-])cc2)c1.[Br-]

melting point: 178 to 180 °C
Structure (SMILES): CCOC(=O)C1=C(C)NC(C)=C(C(=O)OCC)C1c1ccc[n+](-c2ccc([N+](=O)[O-])cc2[N+](=O)[O-])c1.Cl.[Cl-]

melting point: 202 to 203 °C
Structure (SMILES): CC1=C(C(=O)OCc2ccc([N+](=O)[O-])cc2)C(c2ccc[n+](C)c2)C(C(=O)OCc2ccc([N+](=O)[O-])cc2)=C(C)N1.I.[I-]

melting point: 89 to 93 °C
Structure (SMILES): Br.CCCCCCCCCCCCCCCC[n+]1cccc(C2C(C(=O)OCc3ccc([N+](=O)[O-])cc3)=C(C)NC(C)=C2C(=O)OCc2ccc([N+](=O)[O-])cc2)c1.[Br-]

melting point: 166 to 169 °C
Structure (SMILES): CC1=C(C(=O)OC(C)(C)C)C(c2ccc[n+](C)c2)C(C(=O)OC(C)(C)C)=C(C)N1.I.[I-] [Example 2c, 3′,5′-Bis[(1,1-dimethylethoxy)carbonyl]-1′,4′-dihydro-1,2′,6′-trimethyl-3,4′-bipyridinium iodide]

melting point: 197 to 199 °C
Structure (SMILES): CCOC(=O)C1=C(C)NC(C)=C(C(=O)OCC)C1c1cccc[n+]1C.I.[I-] [Example 2v, 3′,5′-Bis(ethoxycarbonyl)-1′,4′-dihydro-1,2′,6′-trimethyl-2,4′-bipyridinium iodide]

melting point: 165 to 167 °C
Structure (SMILES): CCCCCCC[n+]1cccc(C2C(C(=O)OCC)=C(C)NC(C)=C2C(=O)OCC)c1.I.[I-] [Example 5a, 3′,5′-Bis(ethoxycarbonyl)-1-heptyl-1′,4′-dihydro-2′,6′-dimethyl-3,4′-bipyridinium iodide]

melting point: 59 to 61 °C
Structure (SMILES): CCCOCCOC(=O)C1=C(C)NC(C)=C(C(=O)OCCOCCC)C1c1ccc[n+](C)c1.I.[I-] [VIII, 1′,4′-Dihydro-1,2′,6′-trimethyl-3′,5′-bis[(2-propoxyethoxy)-carbonyl]-3,4′-bipyridinium iodide]
